The values that follow come from patent publication US20210189342A1, “COMPOSITIONS AND METHODS FOR MODULATING MONOCYTE AND MACROPHAGE INFLAMMATORY PHENOTYPES AND IMMUNOTHERAPY USES THEREOF” (Verseau Therapeutics, Inc., priority 2018, published 2021).

In one data set the test system is CCR5. Nature of the data set: siRNA dose response, CCR5 mRNA knockdown, Dual-Glo Luciferase Assay. The following applies: Hepal-6 + reporter plasmid, 24 hr. In kind it is cell-based, human. On the procedure:
(§1) Dose response curves for siRNAs were generated in vitro using a variety of cell lines according to Table 4.
(§2) Briefly, cells were seeded in 96-well plates and reverse transfected with siRNA, Lipofectamine® 2000 (0.5 uL/well; ThermoFisher), and, in some cases, a reporter plasmid (50 ng/well). The reporter plasmid (psiCHECK™-2, Promega) encoded both firefly luciferase and the gene of interest fused to renilla luciferase; silencing of the gene of interest results in proportional silencing of renilla luciferase but leaves firefly luciferase unaffected as an internal control.
(§3) After 24 hr incubation at 37° C., mRNA knockdown was measured using an endpoint assay. For targets without a reporter plasmid, a branched DNA (bDNA) assay was performed according to the manufacturer's instructions (QuantiGene® Singleplex Gene Expression Assay, ThermoFisher) to measure both the target gene and GAPDH (housekeeping gene) mRNA. Data are plotted as siRNA concentration (nM) vs. remaining mRNA (ratio of target gene to GAPDH, normalized to mock siRNA-transfected cells). For targets with a reporter plasmid, a Dual-Glo® Luciferase Assay was performed according to the manufacturer's instructions (Promega) to measure firefly and renilla luciferase expression. Data are plotted as siRNA concentration (nM) vs. remaining mRNA (ratio of renilla to firefly luminescence, normalized to mock siRNA-transfected cells).
(§4) For all dose response curves, a 4-parameter logistic model was applied to determine the IC50 of each siRNA sequence (Table 5 and FIG. 2). Data shown in Table 5 and FIG. 2 represent the mean of quadruplicates, +/−standard deviation.
Regarding “XD-10550: siRNA targeting CCR5 (sense 5'-ggAAcAAGAuGGAuuAucAdTsdT-3'; antisense 5'-UGAuAAUCcAUCUUGUUCCdTsdT-3'; as printed in the source, key not given here)”, the half-inhibitory concentration (IC50) turned out to be 0.017 nM.

As to “XD-10551: siRNA targeting CCR5 (sense 5'-ccAuAcAGucAGuaucAAudTsdT-3'; antisense 5'-AUUGAuACUGACUGuAUGGdTsdT-3'; as printed in the source, key not given here)”, the 50% inhibitory concentration (IC50) came out at 0.046 nM.

For the substance “XD-10552: siRNA targeting CCR5 (sense 5'-cauuAAAGAuAGucAucuudTsdT-3'; antisense 5'-AAGAUGACuAUCUUuAAUGdTsdT-3'; as printed in the source, key not given here)”, the concentration for half-maximal inhibition (IC50) came to 0.07 nM.

Take “XD-10553: siRNA targeting CCR5 (sense 5'-agGuAuGGuuAAuaAGuuudTsdT-3'; antisense 5'-AAACUuAUuAACcAuACCUdTsdT-3'; as printed in the source, key not given here)”: the IC50 came out at 0.361 nM.

Regarding “XD-10558: siRNA targeting CCR5 (sense 5'-gcAcAuAcuuGAGacuGuudTsdT-3'; antisense 5'-AAcAGUCUcAAGuAUGUGCdTsdT-3'; as printed in the source, key not given here)”, the IC50 was 1.05 nM.

Regarding “XD-10559: siRNA targeting CCR5 (sense 5'-gcAAcGAAGGGAAauGucudTsdT-3'; antisense 5'-AGAcAUUUCCCUUCGUUGCdTsdT-3'; as printed in the source, key not given here)”, the 50% inhibitory concentration (IC50) worked out at 1.02 nM.

Another data set has as its system CD33. The experiment in a line: siRNA dose response, CD33 mRNA knockdown, bDNA Assay. Type of data set: cell-based, human. The following applies: SK-MEL-2, 24 hr. How it is done: as §1, §2, §3, §4
Regarding “XD-09732: siRNA targeting CD33 (sense 5'-ggccccAGGAcuAcucAcudTsdT-3'; antisense 5'-AGUGAGuAGUCCUGGGGCCdTsdT-3'; as printed in the source, key not given here)”, the concentration for half-maximal inhibition (IC50) is 5.4 nM.

In turn, “XD-09734: siRNA targeting CD33 (sense 5'-acuccucGGuGcucAuAAudTsdT-3'; antisense 5'-AUuAUGAGcACCGAGGAGUdTsdT-3'; as printed in the source, key not given here)” displayed a 50% inhibitory concentration (IC50) of 0.74 nM.

As for “XD-09735: siRNA targeting CD33 (sense 5'-caAcGucAccuAuguuccAdTsdT-3'; antisense 5'-UGGAAcAuAGGUGACGUUGdTsdT-3'; as printed in the source, key not given here)”, the IC50 came to 0.818 nM.

Consider “XD-09736: siRNA targeting CD33 (sense 5'-ucAccuAuGuuccacAGAAdTsdT-3'; antisense 5'-UUCUGUGGAAcAuAGGUGAdTsdT-3'; as printed in the source, key not given here)”, for which inhibition was half-maximal at 0.176 nM (IC50).

“XD-09737: siRNA targeting CD33 (sense 5'-cccAAcAAcuGGuaucuuudTsdT-3'; antisense 5'-AAAGAuACcAGUUGUUGGGdTsdT-3'; RNA with 2'-O-methyl and phosphorothioate modifications, case key not given here, as printed in the source, key not given here)” returned a 50% inhibitory concentration (IC50) of 0.334 nM.

In turn, “XD-09738: siRNA targeting CD33 (sense 5'-ccAGAGcAGGAGugGuucAdTsdT-3'; antisense 5'-UGAACcACUCCUGCUCUGGdTsdT-3'; RNA with 2'-O-methyl and phosphorothioate modifications, case key not given here, as printed in the source, key not given here)” registered a 50% inhibitory concentration (IC50) of 0.22 nM.

The test system of a further data set is LST1. The experiment in a line: siRNA dose response, LST1 mRNA knockdown, bDNA Assay. The following applies: THP-1, 24 hr. Type of data set: cell-based, human. On the procedure:
as §1, §2, §3, §4
Substance “XD-09750: siRNA targeting LST1 (sense 5'-cuGAucAuuucGccuAAAAdTsdT-3'; antisense 5'-UUUuAGGCGAAAUGAUcAGdTsdT-3'; RNA with 2'-O-methyl and phosphorothioate modifications, case key not given here, as printed in the source, key not given here)” yielded a concentration for half-maximal inhibition (IC50) of 3.59 nM.

The substance “XD-09751: siRNA targeting LST1 (sense 5'-cauuucGccuAAAaGAGcAdTsdT-3'; antisense 5'-UGCUCUUUuAGGCGAAAUGdTsdT-3'; RNA with 2'-O-methyl and phosphorothioate modifications, case key not given here, as printed in the source, key not given here)” came in with an IC50 of 1.54 nM.

In turn, “XD-09752: siRNA targeting LST1 (sense 5'-gccuAAAAGAGcAaGGAcudTsdT-3'; antisense 5'-AGUCCUUGCUCUUUuAGGCdTsdT-3'; RNA with 2'-O-methyl and phosphorothioate modifications, case key not given here, as printed in the source, key not given here)” came in with a half-maximal inhibitory concentration (IC50) of 0.737 nM.

In the case of “XD-09754: siRNA targeting LST1 (sense 5'-caAGGAGGAuccAaGAGcudTsdT-3'; antisense 5'-AGCUCUUGGAUCCUCCUUGdTsdT-3'; RNA with 2'-O-methyl and phosphorothioate modifications, case key not given here, as printed in the source, key not given here)”, half-maximal inhibition (IC50) required 0.052 nM.

In turn, “XD-09755: siRNA targeting LST1 (sense 5'-ggAuccAAGAGcugAcuAudTsdT-3'; antisense 5'-AuAGUcAGCUCUUGGAUCCdTsdT-3'; RNA with 2'-O-methyl and phosphorothioate modifications, case key not given here, as printed in the source, key not given here)” registered an IC50 of 0.046 nM.

On to “XD-09756: siRNA targeting LST1 (sense 5'-ucucGAGccuccGuucAAAdTsdT-3'; antisense 5'-UUUGAACGGAGGCUCGAGAdTsdT-3'; RNA with 2'-O-methyl and phosphorothioate modifications, case key not given here, as printed in the source, key not given here)”, for which the half-maximal inhibitory concentration (IC50) is 6.6 nM.

In turn, “XD-09758: siRNA targeting LST1 (sense 5'-ugAucAucAucAAaAcuuAdTsdT-3'; antisense 5'-uAAGUUUUGAUGAUGAUcAdTsdT-3'; as printed in the source, key not given here)” yielded an IC50 of 8.21 nM.

The next data set deals with IGSF6. Nature of the data set: siRNA dose response, IGSF6 mRNA knockdown, Dual-Glo Luciferase Assay. In kind it is cell-based, human. The following applies: Hepa1-6 + reporter plasmid, 24 hr. How it is done:
as §1, §2, §3, §4
On to “XD-09649: siRNA targeting IGSF6 (sense 5'-acAuAuAucAucAgGucuudTsdT-3'; antisense 5'-AAGACCUGAUGAuAuAUGUdTsdT-3'; RNA with 2'-O-methyl and phosphorothioate modifications, case key not given here, as printed in the source, key not given here)”, for which the IC50 amounted to 0.503 nM.

A further data set relates to CXorf21. The experiment in a line: siRNA dose response, CXorf21 mRNA knockdown, bDNA Assay. Type of data set: cell-based, human. The following applies: THP-1, 24 hr. How it is done:
as §1, §2, §3, §4
The substance “XD-10502: siRNA targeting CXorf21 (sense 5'-cuGucAGAAGGGuaucucAdTsdT-3'; antisense 5'-UGAGAuACCCUUCUGAcAGdTsdT-3'; RNA with 2'-O-methyl and phosphorothioate modifications, case key not given here, as printed in the source, key not given here)” displayed a 50% inhibitory concentration (IC50) of 6.03 nM.

In turn, “XD-10503: siRNA targeting CXorf21 (sense 5'-cuAcGuGAGcuGcaAAucAdTsdT-3'; antisense 5'-UGAUUUGcAGCUcACGuAGdTsdT-3'; RNA with 2'-O-methyl and phosphorothioate modifications, case key not given here, as printed in the source, key not given here)” displayed an IC50 of 0.654 nM.

In turn, “XD-10504: siRNA targeting CXorf21 (sense 5'-gguGAuGGccAuuaAuucAdTsdT-3'; antisense 5'-UGAAUuAAUGGCcAUcACCdTsdT-3'; as printed in the source, key not given here)” registered an IC50 of 1.76 nM.

“XD-10505: siRNA targeting CXorf21 (sense 5'-cauuAuGGAcAccguGuuudTsdT-3'; antisense 5'-AAAcACGGUGUCcAuAAUGdTsdT-3'; RNA with 2'-O-methyl and phosphorothioate modifications, case key not given here, as printed in the source, key not given here)” had an IC50 of 13.1 nM.

The substance “XD-10506: siRNA targeting CXorf21 (sense 5'-gucuGAAcucAucauGAcAdTsdT-3'; antisense 5'-UGUcAUGAUGAGUUcAGACdTsdT-3'; as printed in the source, key not given here)” registered a half-maximal inhibitory concentration (IC50) of 0.75 nM.

Consider “XD-10508: siRNA targeting CXorf21 (sense 5'-caAuGuAAAuccAuAGAGAdTsdT-3'; antisense 5'-UCUCuAUGGAUUuAcAUUGdTsdT-3'; as printed in the source, key not given here)”, for which half-maximal inhibition (IC50) required 1.65 nM.

In general, IC50 refers to the midpoint of a concentration-inhibition curve.
